In patent US20190307776A1, “AZA-S[…] HUMAN IMMUNODEFICIENCY VIRUS REPLICATION” (priority 2016, published 2019) one finds EC50 data, which are given here for 14 compounds.

Where only a bound is given, the exact number is not on record here.

This assay relates to recombinant NL4-3 virus. The assay can be described thus: HIV cell culture assay. The format is cell-based. The conditions noted are these: Human immunodeficiency virus 1, NL43, MT2. The procedure: HIV cell culture assay—MT-2 cells and 293T cells were obtained from the NIH AIDS Research and Reference Reagent Program. MT-2 cells were propagated in RPMI 1640 media supplemented with 10% heat inactivated fetal bovine serum, 100 […]. The 293T cells were propagated in DMEM media supplemented with 10% heat inactivated fetal bovine serum (FBS), 100 units/ml penicillin G and 100 μg/ml streptomycin. The proviral DNA clone of NL4-3 was obtained from the NIH AIDS Research and Reference Reagent Program. A recombinant NL4-3 virus, in which a section of the nef gene from NL4-3 was replaced with the Renilla luciferase gene, was used as a reference virus. In addition, residue Gag P373 was converted to P373S. Briefly, the recombinant virus was prepared by transfection of the altered proviral clone of NL4-3. Transfections were performed in 293T cells using LipofectAMINE PLUS from Invitrogen (Carlsbad, Calif.), according to manufacturer's instruction. The virus was titered in MT-2 cells using luciferase enzyme activity as a marker. Luciferase was quantitated using the Dual Luciferase kit from Promega (Madison, Wis.), with modifications to the manufacturer's protocol. The diluted Passive Lysis solution was pre-mixed with the re-suspended Luciferase Assay Reagent and the re-suspended Stop & Glo Substrate (2:1:1 ratio). Fifty (50) μL of the mixture was added to each aspirated well on assay plates and luciferase activity was measured immediately on a Wallac TriLux (Perkin-Elmer). Antiviral activities of inhibitors toward the recombinant virus were quantified by measuring luciferase activity in cells infected for 4-5 days with NLRluc recombinants in the presence serial dilutions of the inhibitor.
On to `C=C(C)[C@@H]1CC[C@]2(CNCCCN3CCS(=O)(=O)CC3)CC[C@]3(C)[C@H](CC[C@@H]4[C@@]5(C)CCN(CC(=O)NC(C)(C)C(=O)O)C(C)(C)[C@@H]5CC[C@]43C)[C@@H]12` [Example 35, 2-(2-((4aR,6aR,6bR,8aS,11R,11aR,11bR,13aR,13bR)-8a-(((3-(1,1-dioxidothiomorpholino)propyl)amino)methyl)-4,4,6a,6b,13b-pentamethyl-11-(prop-1-en-2-yl)hexadecahydro-1H-cyclopenta[5,6]naphtho[2,1-f]isoquinolin-3(2H,4H,13bH)-yl)acetamido)-2-methylpropanoic acid], for which the EC50 (usually the concentration giving half of the maximal effect) was above 3000 nM.

Regarding `C=C(C)[C@@H]1CC[C@]2(CN(C)CCCN3CCS(=O)(=O)CC3)CC[C@]3(C)[C@H](CC[C@@H]4[C@@]5(C)CCN(CC(=O)NC(C)(C)C(=O)O)C(C)(C)[C@@H]5CC[C@]43C)[C@@H]12` [Example 36, 2-(2-((4aR,6aR,6bR,8aS,11R,11aR,11bR,13aR,13bR)-8a-(((3-(1,1-dioxidothiomorpholino)propyl)(methyl)amino)methyl)-4,4,6a,6b,13b-pentamethyl-11-(prop-1-en-2-yl)hexadecahydro-1H-cyclopenta[5,6]naphtho[2,1-f]isoquinolin-3(2H,4H,13bH)-yl)acetamido)-2-methylpropanoic acid], the concentration giving a half-maximal response (EC50) stood at 1300 nM.

Regarding `C=C(C)[C@@H]1CC[C@]2(CNCCCN3CCS(=O)(=O)CC3)CC[C@]3(C)[C@H](CC[C@@H]4[C@@]5(C)CCN(C(=O)CCc6ccc(C(=O)O)cc6)C(C)(C)[C@@H]5CC[C@]43C)[C@@H]12` [Example 28, 4-(3-((4aR,6aR,6bR,8aS,11R,11aR,11bR,13aR,13bR)-8a-(((3-(1,1-dioxidothiomorpholino)propyl)amino)methyl)-4,4,6a,6b,13b-pentamethyl-11-(prop-1-en-2-yl)hexadecahydro-1H-cyclopenta[5,6]naphtho[2,1-f]isoquinolin-3(2H,4H,13bH)-yl)-3-oxopropyl)benzoic acid], the EC50 was 940 nM.

For the compound `C=C(C)[C@@H]1CC[C@]2(CO)CC[C@]3(C)[C@H](CC[C@@H]4[C@@]5(C)CCN(C(=O)c6ccc(C(=O)O)cc6)C(C)(C)C5CC[C@]43C)[C@@H]12` (stereo partly drawn) [Example 10, 4-((6aR,6bR,8aS,11R,11aR,11bR,13aR,13bR)-8a-(hydroxymethyl)-4,4,6a,6b,13b-pentamethyl-11-(prop-1-en-2-yl)icosahydro-1H-cyclopenta[5,6]naphtho[2,1-f]isoquinoline-3-carbonyl)benzoic acid], the EC50 was found to be 320 nM.

As for `C=C(C)[C@@H]1CC[C@]2(CNCCCN3CCS(=O)(=O)CC3)CC[C@]3(C)[C@H](CC[C@@H]4[C@@]5(C)CCN(C(=O)C(=O)O)C(C)(C)[C@@H]5CC[C@]43C)[C@@H]12` [Example 37, 2-((4aR,6aR,6bR,8aS,11R,11aR,11bR,13aR,13bR)-8a-(((3-(1,1-dioxidothiomorpholino)propyl)amino)methyl)-4,4,6a,6b,13b-pentamethyl-11-(prop-1-en-2-yl)hexadecahydro-1H-cyclopenta[5,6]naphtho[2,1-f]isoquinolin-3(2H,4H,13bH)-yl)-2-oxoacetic acid], the EC50 was above 3000 nM.

As for `C=C(C)[C@@H]1CC[C@]2(CO)CC[C@]3(C)[C@H](CC[C@@H]4[C@@]5(C)CCN(C(=O)c6cccc(C(=O)O)c6)C(C)(C)C5CC[C@]43C)[C@@H]12` (stereo partly drawn) [Example 5, 3-((6aR,6bR,8aS,11R,11aR,11bR,13aR,13bR)-8a-(hydroxymethyl)-4,4,6a,6b,13b-pentamethyl-11-(prop-1-en-2-yl)icosahydro-1H-cyclopenta[5,6]naphtho[2,1-f]isoquinoline-3-carbonyl)benzoic acid], the EC50 worked out at 1250 nM.

As for `C=C(C)[C@@H]1CC[C@]2(CNCCCN3CCS(=O)(=O)CC3)CC[C@]3(C)[C@H](CC[C@@H]4[C@@]5(C)CCN(c6ccc(C#N)cn6)C(C)(C)[C@@H]5CC[C@]43C)[C@@H]12` [Example 40, 6-((4aR,6aR,6bR,8aS,11R,11aR,11bR,13aR,13bR)-8a-(((3-(1,1-dioxidothiomorpholino)propyl)amino)methyl)-4,4,6a,6b,13b-pentamethyl-11-(prop-1-en-2-yl)hexadecahydro-1H-cyclopenta[5,6]naphtho[2,1-f]isoquinolin-3(2H,4H,13bH)-yl)nicotinonitrile], the concentration for a half-maximal effect (EC50) worked out at 760 nM.

For the compound `C=C(C)[C@@H]1CC[C@]2(CO)CC[C@]3(C)[C@H](CC[C@@H]4[C@@]5(C)CCN(C(=O)C(=O)O)C(C)(C)C5CC[C@]43C)[C@@H]12` (stereo partly drawn) [Example 6, 2-((6aR,6bR,8aS,11R,11aR,11bR,13aR,13bR)-8a-(hydroxymethyl)-4,4,6a,6b,13b-pentamethyl-11-(prop-1-en-2-yl)icosahydro-3H-cyclopenta[5,6]naphtho[2,1-f]isoquinolin-3-yl)-2-oxoacetic acid], the EC50 is 4000 nM.

As for `C=C(C)[C@@H]1CC[C@]2(CO)CC[C@]3(C)[C@H](CC[C@@H]4[C@@]5(C)CCN(C(=O)CCC(=O)O)C(C)(C)C5CC[C@]43C)[C@@H]12` (stereo partly drawn) [Example 9, 4-((6aR,6bR,8aS,11R,11aR,11bR,13aR,13bR)-8a-(hydroxymethyl)-4,4,6a,6b,13b-pentamethyl-11-(prop-1-en-2-yl)icosahydro-3H-cyclopenta[5,6]naphtho[2,1-f]isoquinolin-3-yl)-4-oxobutanoic acid], the EC50 was determined as 2760 nM.

In the case of `C=C(C)[C@@H]1CC[C@]2(CNCCCN3CCS(=O)(=O)CC3)CC[C@]3(C)[C@H](CC[C@@H]4[C@@]5(C)CCN(C(=O)CC6(CC(=O)O)CCCC6)C(C)(C)[C@@H]5CC[C@]43C)[C@@H]12` [Example 26, 2-(1-(2-((4aR,6aR,6bR,8aS,11R,11aR,11bR,13aR,13bR)-8a-(((3-(1,1-dioxidothiomorpholino)propyl)amino)methyl)-4,4,6a,6b,13b-pentamethyl-11-(prop-1-en-2-yl)hexadecahydro-1H-cyclopenta[5,6]naphtho[2,1-f]isoquinolin-3(2H,4H,13bH)-yl)-2-oxoethyl)cyclopentyl)acetic acid], the EC50 amounted to 130 nM.

`C=C(C)[C@@H]1CC[C@]2(CNCCCN3CCS(=O)(=O)CC3)CC[C@]3(C)[C@H](CC[C@@H]4[C@@]5(C)CCN(C(=O)/C=C/c6ccc(C(=O)O)cc6)C(C)(C)[C@@H]5CC[C@]43C)[C@@H]12` [Example 29, 4-((E)-3-((4aR,6aR,6bR,8aS,11R,11aR,11bR,13aR,13bR)-8a-(((3-(1,1-dioxidothiomorpholino)propyl)amino)methyl)-4,4,6a,6b,13b-pentamethyl-11-(prop-1-en-2-yl)hexadecahydro-1H-cyclopenta[5,6]naphtho[2,1-f]isoquinolin-3(2H,4H,13bH)-yl)-3-oxoprop-1-en-1-yl)benzoic acid]: the EC50 turned out to be 1590 nM.

On to `C=C(C)[C@@H]1CC[C@]2(CO)CC[C@]3(C)[C@H](CC[C@@H]4[C@@]5(C)CCCN(S(=O)(=O)c6ccc(/C=C/C(=O)O)cc6)C(C)(C)C5CC[C@]43C)[C@@H]12` (stereo partly drawn) [Example 12, (E)-3-(4-(((7aR,7bR,9aS,12R,12aR,12bR,14aR,14bR)-9a-(hydroxymethyl)-5,5,7a,7b,14b-pentamethyl-12-(prop-1-en-2-yl)icosahydrocyclopenta[7,8]phenanthro[2,1-c]azepin-4(1H)-yl)sulfonyl)phenyl)acrylic acid], for which the EC50 is above 8000 nM.

For `C=C(C)[C@@H]1CC[C@]2(CNCCCN3CCS(=O)(=O)CC3)CC[C@]3(C)[C@H](CC[C@@H]4[C@@]5(C)CCN(C(=O)/C=C/C(=O)O)C(C)(C)[C@@H]5CC[C@]43C)[C@@H]12` [Example 32, (E)-4-((4aR,6aR,6bR,8aS,11R,11aR,11bR,13aR,13bR)-8a-(((3-(1,1-dioxidothiomorpholino)propyl)amino)methyl)-4,4,6a,6b,13b-pentamethyl-11-(prop-1-en-2-yl)hexadecahydro-1H-cyclopenta[5,6]naphtho[2,1-f]isoquinolin-3(2H,4H,13bH)-yl)-4-oxobut-2-enoic acid], the EC50 was determined as 300 nM.

Regarding `C=C(C)[C@@H]1CC[C@]2(CN(C)CCCN3CCS(=O)(=O)CC3)CC[C@]3(C)[C@H](CC[C@@H]4[C@@]5(C)CCN(c6ccc(C(=O)O)nc6)C(C)(C)[C@@H]5CC[C@]43C)[C@@H]12` [Example 51, 5-((4aR,6aR,6bR,8aS,11R,11aR,11bR,13aR,13bR)-8a-(((3-(1,1-dioxidothiomorpholino)propyl)(methyl)amino)methyl)-4,4,6a,6b,13b-pentamethyl-11-(prop-1-en-2-yl)hexadecahydro-1H-cyclopenta[5,6]naphtho[2,1-f]isoquinolin-3(2H,4H,13bH)-yl)picolinic acid], the EC50 was determined as 26 nM.
